Reference: article PMC10622746, “Coadministration of ivermectin and abamectin affects milk pharmacokinetics of the antiparasitic clorsulon in Assaf sheep” (Frontiers in Veterinary Science, 2023)
Like-named read-outs stand apart in the source and are kept apart here.

Assays:
[1] = tested on: ovine ABCG2
Experimental: (§5) This study employed Madin-Darby Canine Kidney (MDCKII) cells that had been previously transduced with ovine ABCG2. […] Briefly, cells were grown in DMEM (Dulbecco’s modified Eagle’s medium) enriched with glutamax (Life Technologies, Inc., Rockville, MD, United States) and supplemented with penicillin (50 units/mL), streptomycin (50 μg/mL), and 10% (v/v) fetal calf serum (MP Biomedicals, Solon, OH, United States) at a temperature of 37°C and 5% of CO2. Every 3 to 4 days, cells were trypsinized for subculturing.
(§6) Transcellular transport experiments using ovine ABCG2-transduced cells were conducted following the method previously described ([33]). Cells were seeded onto microporous polycarbonate membrane filters (3.0 μm pore size, 24 mm diameter; Transwell 3414; Costar, Corning, NY) at a density of 1.0 × 10^6 per well. The tightness of the monolayer was assessed by measuring its transcellular resistance using Millicell ERS (Millipore Burlington, MA).
(§7) Two hours before the beginning, preincubation was carried out replacing medium in both compartments with 2 mL of transport medium [Hanks’ balanced salt solution supplemented with HEPES (25 mM)] with or without the macrocyclic lactones (10 μM ivermectin and 2.5 μM abamectin). The experiment began with the replacement of the medium in either the apical or basal compartment with transport medium containing clorsulon (10 μM), with or without the same concentration of macrocyclic lactones. Aliquots of 100 μL at 1, 2 and 3 h in the opposite compartment were taken, this volume being replaced with fresh medium. At 4 h, 600 μL aliquots were taken in both compartments. Until analysis by high-performance liquid chromatography (HPLC), samples were stored at −20°C. After concluding the experiment, the confluence of the monolayer was evaluated by means of the Lucifer Yellow permeability assay ([34]). Transport proficiency of these cells was consistently verified through the evaluation of a typical ABCG2 substrate, danofloxacin ([25]).
(§8) The apparent permeability coefficients (Papp) across MDCKII parent and MDCKII oABCG2 cells monolayers in both apical to basal (A-B) (Papp A-B) and basal to apical (B-A) (Papp B-A) directions were calculated using following equation: Papp = (ΔQ/Δt)*(1/A*Co), where ΔQ/Δt is the rate of corresponding clorsulon appearing in the receiver chamber, which was obtained as the slope of the regression line on the transport time profile of clorsulon across the cell monolayers (from 0 to 4 h); Co is the initial concentration of drug; A is the cell monolayer surface area (4.67 cm^2). The efflux ratio is the Papp B-A/Papp A-B quotient.

[2] = Transepithelial transport of clorsulon across MDCKII parental cell monolayers; assay type: in vitro ADME, Canine; settings: dog, MDCK, MDCKII parental cells, clorsulon 10 μM, with or without ivermectin 10 μM, abamectin 2.5 μM, Ko143 1 μM, mean ± SD
[3] = Plasma pharmacokinetics of clorsulon in lactating Assaf sheep; assay type: in vivo; settings: female
Experimental: (§1) Studies with sheep were carried out on the Experimental Farm of the University of León, following institutional guidelines in accordance with European legislation (2010/63/EU). Procedures were also approved by the Animal Care and Use Committee of the University of León ULE-008-2019 (25/09/2019). Eighteen lactating sheep (3–4 months in lactation) of between 77–83 kg were used. Animals were previously dewormed and they had ad libitum access to drinking water. Sheep were randomly distributed in three experimental groups. All received a subcutaneous (s.c.) injection of clorsulon at 2 mg/kg (dissolved in DMSO, 80 mg/mL); one group coadministrated with another s.c. injection of ivermectin at 0.2 mg/kg (Ivomec® 1%, Merial, France) and another group with another s.c. injection of abamectin at 0.2 mg/kg (dissolved in DMSO, 8 mg/mL). Blood samples were taken from the jugular vein, while milk samples were obtained after completing milking of the gland before each treatment and at intervals of 1, 2, 4, 6, 8, 10, 12, 24, 30, 48, 72, 96, 120 and 168 h thereafter. Plasma was separated by centrifuging at 1200 g 15 min. Samples were stored at −20°C until analyzed.
(§2) Samples were analyzed by HPLC under conditions which have been previously described ([31]). Briefly, the chromatographic system used included a Waters 2695 separation module and a Waters 2998 UV photodiode array detector. Separation was performed on a reversed-phase column ([…], […], Torrance, CA, United States). The mobile phase consisted of potassium phosphate 0.01 M (pH 7): acetonitrile (75:25). The flow rate was set at 1.20 mL/min, with UV absorbance measured at 225 nm, and the column temperature maintained at 35°C.
(§3) In vitro samples were injected directly into the HPLC system. In vivo samples, milk and plasma, were extracted following a formerly described method ([31]) with minor modifications. For milk and plasma samples, 10 μL of albendazole-2-aminosulfone (6.25 μg/mL) as internal standard and 200 μL of ethyl acetate were added to each 100 μL. Then, the mixture was vortexed horizontally for 1 min and centrifuged at 8000 g for 10 min at 4°C. The resulting supernatant was collected and subjected to evaporation under N2 at 30°C until dryness. To the evaporated samples, 500 μL of hexane and 300 μL of acetonitrile was added, the mixture was again vortexed horizontally for 1 min and centrifuged at 3000 g for 10 min at 4°C. Hexane was removed and the rest was evaporated to dryness under nitrogen stream. After being resuspended in 100 μL of cold methanol, samples were injected into the HPLC system.
(§4) Plasma and milk concentrations for each animal were analyzed using PK solution 2.0 computer program (Summit Research Services, Ashland, OH) to calculated pharmacokinetic parameters as previously described ([27]).

[4] = Milk pharmacokinetics of clorsulon in lactating Assaf sheep; assay type: in vivo; settings: clorsulon 2 mg/kg s.c., alone or with ivermectin or abamectin 0.2 mg/kg s.c., mean ± SD, n = 6
Experimental: as §1, §2, §3, §4

[5] = tested on: murine ABCG2; design: method as in PMID 37078871; settings: murine ABCG2 transduced cell line; cited from earlier work
[6] = tested on: human ABCG2; design: method as in PMID 37078871; settings: human ABCG2 transduced cell line; cited from earlier work
[7] = design: method as in earlier work; settings: cattle, s.c. 2 mg/kg clorsulon; cited from earlier work
[8] = tested on: ovine ABCG2; assay: in vitro; settings: sheep
Experimental: as §5, §6, §7, §8

[9] = tested on: ovine ABCG2; settings: at 25 μM in ovine ABCG2-transduced cells; cited from earlier work
[10] = MDCKII oABCG2 cells, ivermectin 10 μM, abamectin […], Ko143 1 μM
[11] = sc, clorsulon 2 mg/kg s.c., alone or with ivermectin or abamectin 0.2 mg/kg s.c., mean ± SD, n = 6

In the case of Abamectin, the “Inhibition of clorsulon (10 μM) transport mediated by ovine ABCG2 (in words)” value (“Inhibition of clorsulon” for short) [1, 10] is reported as “effectively inhibited”.
In the case of COc1ccc2c3c([nH]c2c1)[C@H](CC(C)C)N1C(=O)[C@H](CCC(=O)OC(C)(C)C)NC(=O)[C@@H]1C3 [Ko143], the “Inhibition of clorsulon” value [1, 10] is reported as “complete inhibition”.
Work on Nc1cc(C(Cl)=C(Cl)Cl)c(S(N)(=O)=O)cc1S(N)(=O)=O [Clorsulon] yielded a Papp A→B at 4 h, 10 μM ([2]; n ≥ 3, read-out: AP-BL (Papp A-B)) of 2.27 ± 0.46 ×10⁻⁶ cm/s, a Papp B→A at 4 h, 10 μM ([2]; n ≥ 3, read-out: BL-AP (Papp B-A)) of 2.41 ± 0.46 ×10⁻⁶ cm/s and an efflux ratio at 4 h, 10 μM ([2]; read-out: Efflux ratio Papp B-A/Papp A-B) of 1.07 ± 0.06. For the same molecule, the AUC(0-inf) [3, 11] was 43300 ± 6400 ng·h/mL, the Cmax [3, 11] was 2130 ± 280 ng/mL and the MRT [3, 11] was 25 ± 3.97 h. It also gave a Tmax [3, 11] of 6.67 ± 1.93 h, a half-life ([3]; sc, clorsulon 2 mg/kg s.c., alone or with ivermectin or abamectin 0.2 mg/kg s.c., mean ± SD, n = 6, read-out: T1/2 of clorsulon in plasma (converted)) of 19 ± 2.38 h and a concentration at 8 h ([3]; subcutaneous, 8 h after clorsulon 2 mg/kg s.c., alone or with ivermectin 0.2 mg/kg s.c.) of 1950 ± 240 ng/mL. The Kp ([4]; female, Assaf, milk/plasma, subcutaneous, sheep, read-out: AUC milk/AUC plasma) was 0.49 ± 0.14, the AUC(0-inf) ([4]; female, Assaf, sc, sheep milk) was 20700 ± 4970 ng·h/mL and the Cmax ([4]; female, Assaf, sc, sheep milk) was 650 ± 290 ng/mL. The MRT ([4]; female, Assaf, sc, sheep milk) was 40.8 ± 6.15 h, the Tmax ([4]; female, Assaf, sc, sheep milk) was 10 ± 1.26 h and the half-life ([4]; female, Assaf, sc, sheep milk, read-out: T1/2 of clorsulon in milk (converted)) was 25.9 ± 3.72 h. For the same molecule, the “Dose excreted (%) in milk (72 h)” value ([4]; sheep milk, 72 h) was 0.86 ± 0.28%, the “Transport by ovine ABCG2 (substrate, in words)” value ([1]; MDCKII oABCG2 cells, clorsulon 10 μM) was “efficiently transported” and the Efflux transport ratio [5] was 2.20 ± 0.13. For the same molecule, the Efflux transport ratio [6] was 1.63 ± 0.17, the Maximum plasma concentration [7] was 2.5 µg/mL and the “Time of maximum plasma concentration” value [7] was 6 h. It also gave a Papp A→B at 4 h, 10 μM [8] of 1.13 ± 0.16 ×10⁻⁶ cm/s, a Papp B→A at 4 h, 10 μM [8] of 3.23 ± 0.88 ×10⁻⁶ cm/s and an efflux ratio at 4 h, 10 μM [8] of 2.92 ± 0.93.
In the case of Ivermectin, the “Inhibition of clorsulon” value [1] is given as “effectively inhibited” and the Inhibition potency value [9] is given as 45.9%.
